Assay results published in patent US5770595A, “Oxime substituted therapeutic compounds” (Cell Therapeutics, Inc., priority 1994, dated 1998).

What was measured:
[1] = test system: polymorphonuclear leukocytes; details: in response to a stimulator of chemotaxis; U.S. Pat. No. 4,636,507; cited from earlier work
[2] = U.S. Pat. Nos. 4,515,795 and 4,576,947; cited from earlier work
VCAM in HUVEC cells = assay: cell surface expression of VCAM in HUVEC; assay type: cell-based, human; details: protocol similar to Example 20; FIG. 17
Description: Drug inhibitory activity can also be measured by determining levels of vascular cell adhesion molecule (VCAM) in stimulated cells. Early passage human umbilical vein endothelial cells (HUVEC) (obtained from commercial suppliers such as Cell Systems, Inc. or Clonetics) are cultured in media (e.g., Hepes buffered media, Cell Systems) containing 10% fetal bovine serum, and supplemented with a stimulating agent, such as fibroblast growth factor (acidic FGF, Cell Systems, Inc.) or TNF. The cells are plated into wells of a microtiter plate (e.g., 5×10^4 per well) and allowed to incubate at 37° C. for 72 hrs. The resting cells are removed (e.g., 20-30 min treatment with 0.4% EDTA), washed in media (e.g., phosphate buffered saline plus 0.1% bovine serum albumin with 0.01% sodium azide) and labeled on ice with a monoclonal antibody ("first antibody") recognizing human VCAM (e.g., 1 μg of a murine monoclonal antibody recognizing human VCAM, Genzyme). After 60 min on ice, the cells are washed (preferably twice) with cold wash media and incubated with an antibody that recognizes the first antibody (e.g., 1 μg of goat anti-mouse IgG conjugated with phycoerythrin, CalTag, Inc.). After 30 min on ice, the cells are washed twice and analyzed on a flow cytometer (Coulter Elite®) at appropriate emission and excitation wavelengths (e.g., for phycoerytlrin use excitation at 488 nm and emission at 525 nm).
The cells were stimulated with human TNF-α (20 ng/ml) for 20 hours and then stained for immunofluorescence using a monoclonal antibody recognizing VCAM, followed by a goat anti-mouse antibody conjugated to phycoerythrin. The cells were analyzed for antibody binding using flow cytometry. […] 1521 and 1522 at the indicated drug concentrations.
This example was used to investigate inhibition of vascular cell adhesion molecule (VCAM) expression on HUVEC by inventive compound no. 2525. VCAM expression by endothelial cells is an early event in atherogenesis and multiple sclerosis, among other various autoimmune diseases. FIG. 17, a plot of percent surface expression versus concentration of compound no.

[3] = test system: THP-1 cells / IL-1β-activated HUVEC; assay: THP-1 cell adhesion to IL-1β-activated HUVEC; assay type: cell-based, human; details: IL-1β 10 ng/ml, 8 hours; between 1.0 and 10 μM
Description: This example illustrates inhibitive activity of inventive compound no. 2525 on THP-1 cell adhesion to IL-1β-activated HUVEC. In an investigative assay, HUVEC were stimulated with IL-1β (10 ng/ml), both in the absence and presence of varying concentrations of inventive compound for 8 hours in a 96-well microtiter plate. In the wellplate, human monocytic leukemia cell line THP-1 cells were added at 50,000 cells per well. The THP-1 cells were pre-incubated with BCECF, a fluorescence dye that can be use to measure cell number using a fluorescence plate reader. After 10 minutes at 37° C., the microtiter plate was inverted and spun at 900 rpm. The remaining adhering THP-1 cells were then analyzed. […] The inventive compound no.

[4] = test system: THP-1 cells / TNFα-activated HUVEC; assay: THP-1 cell adhesion to TNFα-activated HUVEC; assay type: cell-based, human; details: 0.1 to 10 μM
From the text: This example illustrates inhibitive activity of inventive compound no. 2525 on THP-1 cell adhesion to TNFα-activated HUVEC. In an investigative assay, representative of the protocol employed in Example 23, HUVEC were stimulated with TNF α instead of IL-1β. As shown by results reported in FIG. 15, non-stimulated background adherence was approximately 1000 relative units, increasing to approximately 3000 under TNF stimulation.

ICAM in HUVEC cells = assay: cell surface expression of ICAM in HUVEC; assay type: cell-based; details: human TNF-α 20 ng/ml, 20 hours
Description: 2525 to inhibit cell surface expression of ICAM in HUVEC cells. The cells were stimulated with human TNF-α (20 ng/ml) for 20 hours and then stained for immunofluorescence using a monoclonal antibody recognizing ICAM, followed by a goat anti-mouse antibody conjugated to phycoerythrin. The cells were analyzed for antibody binding using flow cytometry. FIG. 16 reports % surface expression, determined by analysis of mean fluorescence intensity of cells analyzed by flow cytometry, for compound no. 2525, at concentration shown. As reported, compound no.

[5] = test system: PBMC (peripheral blood mononuclear cells); assay: two-way mixed lymphocyte reaction; assay type: cell-based, human; details: Example 28; protocol similar to Example 10
From the text: Various in vitro assays can be used to measure effects of the inventive compounds to module immune activity and have antitumor activity using a variety of cellular types. For example, a mixed lymphocyte reaction (MLR) provides a valuable screening tool to determine biological activity of each inventive compound. In the MLR, PBMCs (peripheral blood mononuclear cells) are obtained by drawing whole blood from healthy volunteers in a heparinized container and diluted with an equal volume of hanks balanced salt solution (HBSS). This mixture is layered on a sucrose density gradient, such as a Ficoll-Hypaque® gradient (specific gravity 1.08), and centrifuged at 1000×g for 25 minutes at room temperature or cooler. PBMC are obtained from a band at a plasma-Ficoll interface, separated and washed at least twice in a saline solution, such as HBSS. Contaminating red cells are lysed, such as by ACK lysis for 10 min at 37° C., and the PBMCs are washed twice in HBSS. The pellet of purified PBMCs is resuspended in complete medium, such as RPMI 1640 plus 20% human inactivated serum. Proliferative response of PBMC to allogeneic stimulation is determined in a two-way MLR performed in a 96-well microtiter plate. Briefly, approximately 10^5 test purified PBMC cells in 200 μl complete medium are co-cultured with approximately 10^5 autologous (control culture) or allogeneic (stimulated culture) PBMC cells, wherein the allogeneic cells are from HLA disparate individuals. Varying doses of compounds (drug) are added at the time of addition of cells to the microtiter plate. The cultures are incubated for 6 days at 37° C. in a 5% CO2 atmosphere. At the conclusion of the incubation tritiated thymidine is added (for example, 1 μCi/well of 40 to 60 Ci/mmole) and proliferation determined by liquid scintillation. counting.
Example 10 illustrates a mixed lymphocyte reaction of inventive compounds nos. 1521 and 1522 (see above for chemical name and structure). […] Both compounds nos. […]

murine thymocyte = assay: thymocyte proliferation stimulated by ConA and IL-2; assay type: cell-based, murine (female Balb/C mice); details: ConA, IL-2 15 U/ml; FIG. 18 (IC50 curve)
Description: A thymocyte costimulator assay is conducted to evaluate the inventive compounds to inhibit activation and proliferation of thymocytes caused by stimulation with Con A and interleukin-1 (IL-1), or […]. Thymuses are obtained from mice (e.g., female Balb/C mice) and the thymuses are removed and dissociated into culture media (e.g., RPMI 1640 without serum supplementation). The dissociated thymus tissue and cell suspension is transferred to centrifuge tubes and allowed to settle, washed with HBSS and resuspended in serum-supplemented culture media (e.g., RPMI 1640 with 10% fetal calf serum). Any contaminating red cells are lysed, and viable cells are resuspended and counted. Thymocytes are plated (e.g., 96-well plates at a density of 2×10^5 cells/well) and a stimulating agent, such as Con A, IL-1 (e.g., IL-1α) or IL-2 is added to the well. The cells are incubated for 4 days at 37° C. On the fourth day, the cells are pulsed with tritiated thymidine and cell proliferation determined. […]
1522 on inhibition of thymocyte proliferation stimulated by ConA and interleukin-2 (IL-2) (20 ng/ml). Compound no. […]
Thymuses, obtained from normal, female Balb/C mice, were dissociated and plated into 96-well plates at a density of 2×10^5 cells/well. […] The amount of tritiated thymidine dye incorporated by the harvested cells was determined in a liquid scintillation counter. […]

## CC(O)CCCCn1c(=O)c2c(ncn2C)n(C)c1=O (centres unmarked) [M1, 1-(5-hydroxyhexyl)-3,7-dimethylxanthine]
[1]
  stimulation of chemotaxis in polymorphonuclear leukocytes: stimulate chemotaxis in polymorphonuclear leukocytes
[2]
  cerebral blood flow: increasing cerebral blood flow

## CC(CCCCCCCCCCn1c(=O)c2c(ncn2C)n(C)c1=O)=NO [compound 2525]
VCAM in HUVEC cells
  inhibition of VCAM surface expression: able to inhibit surface expression of VCAM
[3]
  inhibition of THP-1 adhesion to IL-1β-activated HUVEC: significantly inhibited THP-1 adhesion
[4]
  inhibition of THP-1 adhesion to TNFα-activated HUVEC: significantly inhibited THP-1 adhesion
ICAM in HUVEC cells
  inhibition of ICAM surface expression: inhibited ICAM surface expression

## CC(CCCCCCCCCn1c(=O)c2c(ncn2C)n(C)c1=O)=NO [compound 2514]
[5]
  proliferative response of lymphocytes in mixed lymphocyte reaction: showed activity in this immune modulating activity assay procedure
Murine thymocyte
  inhibition of thymocyte proliferation, ConA + IL-2: inhibit thymocyte proliferation and activation
